# Laboratory results published in patent US20140228425A1, “INHIBITOR FOR CORNEAL EPITHELIAL CELL DEATH, INHIBITOR CHARACTERIZED BY COMBINING HYALURONIC ACID AND FLAVIN ADENINE DINUCLEOTIDE” (SANTEN PHARMACEUTICAL CO., LTD., priority 2011, published 2014).
# Counter-ions that a name gives are not always drawn.
# How the values were obtained:
# corneal epithelial cells [1] = conditions: Non-Patent Document 1; cited from earlier work
# corneal epithelial cells [2] = conditions: Non-Patent Document 3; cited from earlier work
# [3] = tested on: SV40 immortalized human corneal epithelial cells (HCE-T); experiment: Pharmacological Test 2: treatment before UV-B irradiation (120 mJ/cm^2), cell death inhibition ratio; type: cell-based; conditions: for Cell death inhibition ratio: average N=3
# Description: A test similar to Pharmacological test 1 was conducted with the irradiation condition of UV-B varied.
# After conducting operations similar to those in Pharmacological test 1, the 10% FBS-containing DMEM/F-12 culture medium was replaced by PBS containing 0.05% (w/v) flavin adenine dinucleotide disodium salt, PBS containing 0.05% (w/v) sodium hyaluronate, PBS containing 0.05% (w/v) sodium hyaluronate and 0.05% (w/v) flavin adenine dinucleotide disodium salt, PBS containing 0.3% (w/v) sodium hyaluronate, PBS containing 0.3% (w/v) sodium hyaluronate and 0.05% (w/v) flavin adenine dinucleotide disodium salt, or PBS not containing a test substance (hereinafter, referred to as “0.05% FAD group”, “0.05% HA group”, “0.05% HA/0.05% FAD group”, “0.3% HA group”, “0.3% HA/0.05% FAD group” or “base group”, respectively). Then, corneal epithelial cells were irradiated with UV-B (120 mJ/cm^2) for about 2 minutes, and again operations similar to those in Pharmacological test 1 were conducted. Then, according to the expression 1, the viability was calculated, and further, according to the following expression 2, the cell death inhibition ratio of each group was calculated.
# Cell death inhibition ratio (%)=Viability of each group−Viability of base group [Expression 2]
# [4] = tested on: SV40 immortalized human corneal epithelial cells; experiment: Pharmacological Test 3: treatment after UV-B irradiation (80 mJ/cm^2), viability of corneal epithelial cells; type: cell-based; conditions: treated 60 minutes after UV-B irradiation (80 mJ/cm^2, about 1 minute); 0.1% (w/v) sodium hyaluronate, 0.05% (w/v) flavin adenine dinucleotide disodium salt, or both; FIG. 2
# Description: Whether or not the decline of the number of living cells by ultraviolet irradiation is inhibited when corneal epithelial cells are treated with the present agent after ultraviolet (UV-B) irradiation was evaluated.
# SV40 immortalized human corneal epithelial cells were inoculated in a 96-well plate (1×10^4 cells/well), and cultured in a 10% FBS-containing DMEM/F-12 culture medium for a day. On the next day, corneal epithelial cells were irradiated with UV-B (80 mJ/cm^2) for about 1 minute. Then the 10% FBS-containing DMEM/F-12 culture medium was replaced by PBS containing 0.1% (w/v) sodium hyaluronate, PBS containing 0.05% (w/v) flavin adenine dinucleotide disodium salt, PBS containing 0.1% (w/v) sodium hyaluronate and 0.05% (w/v) flavin adenine dinucleotide disodium salt, or PBS not containing a test substance, and then cultured at 37° C. for 60 minutes (hereinafter, referred to as “0.1% HA group”, “0.05% FAD group”, “0.1% HA/0.05% FAD group” or “base group”, respectively). Then, after replacing the culture medium of each group by a 10% FBS-containing DMEM/F-12 culture medium, the cells were cultured at 37° C. for 24 hours, and then the number of living cells was determined by using Cell Titer 96 (registered trade name) AQueous One Solution Cell Proliferation Assay, and the viability was calculated according to the following expression 3. […]
# [5] = tested on: SV40 immortalized human corneal epithelial cells; experiment: Pharmacological Test 4: treatment before exposure to dryness, viability of corneal epithelial cells; type: cell-based; conditions: treated 60 minutes before exposure to dryness for 15 minutes; 0.1% HA, 0.05% FAD or 0.1% HA/0.05% FAD in D-MEM/F12; FIG. 3
# Description: Whether or not the decline of the number of living cells by dryness is inhibited when corneal epithelial cells are treated with the present agent before exposure to dryness was evaluated.
# SV40 immortalized human corneal epithelial cells were inoculated in a 96-well plate (1×10^4 cells/well), and cultured in a 10% FBS-containing DMEM/F-12 culture medium for a day. On the next day, the culture medium was replaced by a D-MEM/F12 culture medium containing 0.1% (w/v) sodium hyaluronate, a D-MEM/F12 culture medium containing 0.05% (w/v) flavin adenine dinucleotide disodium salt, a D-MEM/F12 culture medium containing 0.1% (w/v) sodium hyaluronate and 0.05% (w/v) flavin adenine dinucleotide disodium salt, or a D-MEM/F12 culture medium not containing a test substance, and then cells were cultured at 37° C. for 60 minutes (hereinafter, referred to as “0.1% HA group”, “0.05% FAD group”, “0.1% HA/0.05% FAD group” or “base group”, respectively). After culturing, the culture medium of each group was removed, and then cells were exposed to dryness for 15 minutes. After exposure to dryness, the number of living cells was determined by using Cell Titer 96 (registered trade name) AQueous One Solution Cell Proliferation Assay, and the viability was calculated according to the following expression 4. […]
# [6] = Patent Document 1; cited from earlier work
# [7] = single substance 0.05% (w/v) in PBS before UV-B (120 mJ/cm^2, about 2 minutes)
Compound,"Cell death inhibition ratio [3, 7]",inhibition of corneal epithelial cell death (in words) [4],action of inhibiting corneal epithelial cell death (in words) [5],other results
hyaluronic acid or a salt thereof [hyaluronic acid or the like],,,,Caspase-3/7 activation by UV-B irradiation (corneal epithelial cells [1]): inhibits; increase in production of active oxygen by corneal epithelial cells by UV-B irradiation (corneal epithelial cells [1]): inhibits; cell death of corneal epithelial cells induced by dryness (corneal epithelial cells [2]): does not inhibit
"Cc1cc2nc3c(=O)[nH]c(=O)nc-3n(C[C@H](O)[C@H](O)[C@H](O)COP(=O)([O-])OP(=O)([O-])OC[C@H]3O[C@@H](n4cnc5c(N)ncnc54)[C@H](O)[C@@H]3O)c2cc1C.[Na+].[Na+] [FAD, flavin adenine dinucleotide disodium salt]",48.78%,little observed,the action was not observed,
sodium hyaluronate [HA],−0.17%,little observed,an action of inhibiting corneal epithelial cell death was observed,"Cell death inhibition ratio ([3]; single substance 0.3% (w/v) in PBS before UV-B (120 mJ/cm^2, about 2 minutes)): 4.17%; inhibition of corneal epithelial cell death by UV-B irradiation (in words) ([3]; treatment before UV-B irradiation (120 mJ/cm^2, about 2 minutes)): little inhibit"
"Cc1cc2nc3c(=O)[nH]c(=O)nc-3n(C[C@H](O)[C@H](O)[C@H](O)COP(=O)(O)OP(=O)(O)OC[C@H]3O[C@@H](n4cnc5c(N)ncnc54)C(O)C3O)c2cc1C (stereo partly drawn) [FAD or the like, flavin adenine dinucleotide (FAD) or a salt thereof]",,,,lacrimal secretagogue action [6]: has a lacrimal secretagogue action
